Laboratory results reported in EP1707568A2, “A pharmaceutical composition for use in the treatment of ovarian cancer in a human afflicted therewith” (SMITHKLINE BEECHAM CORPORATION, priority 1991, dated 1992).
Read-outs that look alike come from different tables or passages of the source.

Key:
[1] = Hang-bag stability of topotecan diluted in saline or dextrose; type: physicochemical; details: read-out: recovery
Procedure: Topotecan diluted in saline (10 ug/ml or 500 ug/ml) or dextrose (6.7 ug/ml or 330 ug/ml) is stable in a hang-bag for 24 hours with at least 95% recovery.

ovarian cancer = experiment: Clinical treatment of a platinum-refractory ovarian cancer patient, tumor size evaluated by CAT scan; type: in vivo; details: one human patient, intravenous 1.5 mg/m^2 per day for five consecutive days
Procedure: One human patient with ovarian cancer, who was refractory to two previous platinum-containing regimens (i.e., cisplatin-cyclophosphamide combination regimen and treatment with single agent carboplatin), received a course of therapy comprising intravenous administration of 1.5 mg of topotecan/m^2 of body surface area per day for five consecutive days. This course of therapy was repeated […] nine more times to date at twenty-one day intervals (from the date of initiation of therapy) for a total of ten treatments. Tumor size regression was evaluated by CAT (computerized axial tomography) scan. […] At least until the tenth treatment, this clinically significant response was sustained, i.e., a greater than fifty percent (50%) tumor size regression was obtained.

[2] = Stability of reconstituted topotecan solution further diluted in D5W or NS in plastic bags at room temperature; type: physicochemical; details: for Percentage of Initial Topotecan Remaining in Solution: 0 hrs; for remaining at 6 h / remaining at 24 h / remaining at 48 h: read-out: Percentage of Initial Topotecan Remaining in Solution
Procedure: Topotecan is currently undergoing Phase I clinical investigation. The following pharmaceutical information is being supplied to the clinicians: • How supplied - As a vial containing 5 mg (of the base) with 100 mg mannitol. The pH is adjusted to 3.0 with HCl/NaOH. Lyophilized powder is light yellow in color. Intact vials should be stored under refrigeration (2-8 degrees Centigrade). • Solution Preparation -When the 5 mg vial is reconstituted with 2 ml of Sterile Water for Injection, USP, each ml will contain 2.5 mg of topotecan as the base and 50 mg of mannitol, USP. Topotecan must not be diluted or mixed with buffered solutions because of solubility and stability considerations. • Stability - Shelf life surveillance of the intact vials is ongoing. Because the single-use lyophilized dosage form contains no antibacterial preservatives, it is advised that the reconstituted solution be discarded eight hours after initial entry into the vial. Futher dilutions of the reconstituted solution to concentrations of 0.02 mg/ml and 0.1 mg/ml in 5% Dextrose Injection, USP, ("D5W") or 0.9% Sodium Chloride Injection, USP, ("NS") in plastic bags stored at room temperature yielded the following stability results:
Percentage of Initial Topotecan Remaining in Solution

In the case of `CC[C@@]1(O)C(=O)OCc2c1cc1n(c2=O)Cc2cc3c(CN(C)C)c(O)ccc3nc2-1` [Topotecan, (S)-9-dimethylaminomethyl-10-hydroxycamptothecin], the remaining at 24 h ([1]; dextrose, 6.7 ug/ml) was no less than 95%, the remaining at 24 h ([1]; saline, 10 ug/ml) was no less than 95% and the Tumor size regression (ovarian cancer; following four courses) was “An even greater response was observed”. The Tumor size regression (ovarian cancer; following two courses of therapy) was “Tumor size regression was observed”, the Tumor size regression (ovarian cancer; sustained at least until the tenth treatment) was greater than 50% and the “Percentage of Initial Topotecan Remaining in Solution” value ([2]; D5W, 0.02 mg/ml) was 100.00%. The “Percentage of Initial Topotecan Remaining in Solution” value ([2]; D5W, 0.1 mg/ml) was 100.00%, the “Percentage of Initial Topotecan Remaining in Solution” value ([2]; NS, 0.02 mg/ml) was 100.00% and the “Percentage of Initial Topotecan Remaining in Solution” value ([2]; NS, 0.1 mg/ml) was 100.00%. It also gave a remaining at 6 h ([2]; d5w, 0.02 mg/ml) of 99.3%, a remaining at 6 h ([2]; d5w, 0.1 mg/ml) of 99.7% and a remaining at 24 h ([2]; d5w, 0.02 mg/ml) of 102%. The remaining at 24 h ([2]; d5w, 0.1 mg/ml) was 98.2%, the remaining at 48 h ([2]; d5w, 0.02 mg/ml) was 102% and the remaining at 48 h ([2]; d5w, 0.1 mg/ml) was 97.9%. The remaining at 6 h ([2]; ns, 0.02 mg/ml) was 98.6%, the remaining at 6 h ([2]; ns, 0.1 mg/ml) was 97.7% and the remaining at 24 h ([2]; ns, 0.02 mg/ml) was 96%. For the same molecule, the remaining at 24 h ([2]; ns, 0.1 mg/ml) was 98.3%, the remaining at 48 h ([2]; ns, 0.02 mg/ml) was 102% and the remaining at 48 h ([2]; ns, 0.1 mg/ml) was 98.3%.
